# Molecular target: Ras-related protein Rab-7a (Canis lupus familiaris, UniProt P18067)
# Experiment: Rab7 wildtype GTP binding inhibitors, SAR follow-up, biochemical, dog Rab7, bead multiplex flow cytometry, Bodipy-FL-GTP, pyrazoline series (AID 2041)
# Details: not given
# Sequence of Ras-related protein Rab-7a (P18067 whole entry): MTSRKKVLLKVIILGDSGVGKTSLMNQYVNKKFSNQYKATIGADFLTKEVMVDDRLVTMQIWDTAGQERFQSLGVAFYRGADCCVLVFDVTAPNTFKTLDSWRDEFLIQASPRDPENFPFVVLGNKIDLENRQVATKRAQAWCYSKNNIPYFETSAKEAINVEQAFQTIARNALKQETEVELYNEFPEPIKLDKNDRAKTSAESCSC
row,EC50 [µM],Structure (SMILES)
1,> 30,"FC(F)(F)c1ccccc1C1CC(c2ccc(Br)cc2)=NN1c1ccccc1 (stereo not given) [5-(4-bromophenyl)-2-phenyl-3-[2-(trifluoromethyl)phenyl]-3,4-dihydropyrazole]"
2,> 30,"O=S(=O)(c1ccc(N2N=C(c3ccc(Br)cc3)CC2c2ccccc2)cc1)C(F)F (stereo not given) [5-(4-bromophenyl)-2-[4-(difluoromethylsulfonyl)phenyl]-3-phenyl-3,4-dihydropyrazole]"
3,> 30,Cc1ccc(-c2cc(C(F)(F)F)nn2-c2ccc(S(N)(=O)=O)cc2)cc1 [Celecoxib]
4,> 30,COc1ccc(C2CC(c3ccc(N(C)C)cc3)=NN2c2ccc(S(N)(=O)=O)cc2)cc1 (stereo not given) [KUC103422N]
5,> 30,COc1ccc(C2CC(c3ccccc3Br)=NN2c2ccc(S(N)(=O)=O)cc2)cc1 (stereo not given) [UNM-0000306112]
6,> 30,COc1ccc(C2CC(c3ccccc3)=NN2c2ccc(C(N)=O)cc2)cc1 (stereo not given) [UNM-0000305870]
7,> 30,COc1ccc(C2=NN(c3ccccc3F)C(c3ccc(F)cc3)C2)cc1 (stereo not given) [UNM-0000305860]
8,> 30,O=[N+]([O-])c1ccc([N+]2=N[C-](c3ccccc3)CC2c2ccc(O)cc2)cc1 (stereo not given) [UNM-0000305838]
9,> 30,COc1ccc(C2CC(c3ccccc3F)=NN2c2ccc(S(N)(=O)=O)cc2)cc1 (stereo not given) [UNM-0000306110]
10,> 30,"Cc1ccccc1N1N=C(c2ccccc2)CC1c1ccc(N(C)C)cc1 (stereo not given) [N,N-dimethyl-4-[2-(2-methylphenyl)-5-phenyl-3,4-dihydropyrazol-3-yl]aniline]"
11,> 30,Cc1cccc(N2N=C(c3ccccc3)CC2c2ccccc2)c1 (stereo not given) [UNM-0000305835]
12,> 30,NS(=O)(=O)c1ccc(N2N=C(c3ccccc3)CC2c2ccccc2Cl)cc1 (stereo not given) [KUC103446N]
13,> 30,COc1ccc(C2CC(c3ccc(F)cc3)=NN2c2ccccc2)cc1OC (stereo not given) [UNM-0000305864]
14,> 30,COc1ccc(C2CC(c3ccccc3)=NN2c2ccc(C(=O)O)cc2)cc1 (stereo not given) [UNM-0000306085]
15,> 30,Cc1ccccc1[N+]1=N[C-](c2ccccc2)CC1c1cccc([N+](=O)[O-])c1 (stereo not given) [UNM-0000305854]
16,> 30,"O=[N+]([O-])c1cccc(C2C[C-](c3ccc(F)cc3)N=[N+]2c2ccccc2)c1 (stereo not given) [5-(4-fluorophenyl)-3-(3-nitrophenyl)-2-phenyl-3,4-dihydropyrazole]"

row,EC50 [µM],Structure (SMILES)
1,> 30,CN(C)c1ccc(C2CC(c3ccc(Cl)cc3)=NN2c2ccccc2)cc1 (stereo not given) [UNM-0000305847]
2,> 30,COc1ccc(C2CC(c3ccccc3C)=NN2c2ccc(S(N)(=O)=O)cc2)cc1 (stereo not given) [UNM-0000306152]
3,> 30,COc1ccc(C2CC(c3cccs3)=NN2c2ccc(S(N)(=O)=O)cc2)cc1 (stereo not given) [KUC103438N]
4,> 30,COc1ccc(C2CC(c3ccc(Br)cc3)=NN2c2ccccc2Cl)cc1 (stereo not given) [UNM-0000305832]
5,> 30,COc1ccc(C2CC(c3ccc(Cl)cc3)=NN2c2ccccc2)cc1OC (stereo not given) [UNM-0000305858]
6,> 30,Cc1ccccc1C1CC(c2ccccc2)=NN1c1ccc(S(N)(=O)=O)cc1 (stereo not given) [UNM-0000306148]
7,> 30,O=[N+]([O-])c1cccc(C2C[C-](c3ccccc3)N=[N+]2c2ccccc2)c1 (stereo not given) [UNM-0000305857]
8,> 30,"COc1ccc(C2CC(c3ccc(F)cc3)=NN2c2ccc(S(N)(=O)=O)cc2)cc1 (stereo not given) [4-[5-(4-fluorophenyl)-3-(4-methoxyphenyl)-3,4-dihydropyrazol-2-yl]benzenesulfonamide]"
9,10.2,COc1ccccc1N1N=C(c2ccccc2)CC1c1ccccc1 (stereo not given) [UNM-0000305855]
10,> 30,COc1ccc(C2CC(c3ccccc3)=NN2c2ccc(S(N)(=O)=O)cc2)cc1OC (stereo not given) [UNM-0000305823]
11,> 30,COc1ccc(C2CC(c3ccc(Br)cc3)=NN2c2ccc(S(N)(=O)=O)cc2)cc1 (stereo not given) [UNM-0000306138]
12,> 30,NS(=O)(=O)c1ccc(N2N=C(c3ccccc3)CC2c2cccc(Br)c2)cc1 (stereo not given) [UNM-0000306147]
13,> 30,CN(C)c1ccc(C2CC(c3ccc(F)cc3)=NN2c2ccccc2)cc1 (stereo not given) [UNM-0000305866]
14,> 30,"COc1ccc(C2CC(C3CCCCC3)=NN2c2ccc(S(N)(=O)=O)cc2)cc1 (stereo not given) [4-[5-cyclohexyl-3-(4-methoxyphenyl)-3,4-dihydropyrazol-2-yl]benzenesulfonamide]"
15,> 30,FC(F)(F)c1cccc(N2N=C(c3ccc(Cl)cc3)CC2c2ccccc2Cl)c1 (stereo not given) [UNM-0000305859]

# Second part, the molecule before the results:
row,Structure (SMILES),EC50 [µM]
1,COc1ccc(C2CC(c3ccc(C)cc3)=NN2c2ccc(S(N)(=O)=O)cc2)cc1 (stereo not given),> 30
2,COc1ccc(C2CC(c3cccnc3)=NN2c2ccc(S(N)(=O)=O)cc2)cc1 (stereo not given),> 30
3,COc1ccc(C2CC(c3ccccc3)=NN2c2ccc(Cl)c(C(=O)O)c2)cc1 (stereo not given),> 30
4,"Fc1ccc(C2=NN(c3cccc(Br)c3)C(c3ccccc3)C2)cc1 (stereo not given) [2-(3-bromophenyl)-5-(4-fluorophenyl)-3-phenyl-3,4-dihydropyrazole]",> 30
5,CC(=O)Oc1ccc(C2=NN(c3ccccc3)C(c3ccccc3)C2)cc1 (stereo not given),> 30
6,NS(=O)(=O)c1ccc(N2N=C(c3ccc(Cl)cc3)CC2c2ccccc2)cc1 (stereo not given),> 30
7,Brc1ccc(N2N=C(c3ccccc3)CC2c2ccccc2)cc1 (stereo not given),> 30
8,"COc1ccc(C2=NN(c3cccc(F)c3)C(c3ccc(Cl)cc3)C2)cc1 (stereo not given) [3-(4-chlorophenyl)-2-(3-fluorophenyl)-5-(4-methoxyphenyl)-3,4-dihydropyrazole]",> 30
9,Clc1cccc(N2N=C(c3ccccc3)CC2c2ccccc2)c1 (stereo not given),> 30
10,Cc1cccc(C2CC(c3ccccc3)=NN2c2ccc(S(N)(=O)=O)cc2)c1 (stereo not given),> 30
11,COc1ccc(C2CC(c3ccc(F)cc3)=NN2c2cccc(F)c2)cc1OC (stereo not given),22.5
12,CN(C)c1ccc(C2C[C-](c3ccccc3)N=[N+]2c2ccc([N+](=O)[O-])cc2)cc1 (stereo not given),> 30
13,COc1ccc(C2CC(c3cccc(C(F)(F)F)c3)=NN2c2ccc(S(N)(=O)=O)cc2)cc1 (stereo not given),> 30
14,"NS(=O)(=O)c1ccc(N2N=C(c3ccc(Br)cc3)CC2c2ccc(F)cc2)cc1 (stereo not given) [4-[5-(4-bromophenyl)-3-(4-fluorophenyl)-3,4-dihydropyrazol-2-yl]benzenesulfonamide]",> 30
15,"NS(=O)(=O)c1ccc(N2N=C(c3ccccc3)CC2c2ccccc2Br)cc1 (stereo not given) [4-[3-(2-bromophenyl)-5-phenyl-3,4-dihydropyrazol-2-yl]benzenesulfonamide]",> 30
16,"NS(=O)(=O)c1ccc(N2N=C(c3ccccc3)CC2c2ccc(Cl)cc2)cc1 (stereo not given) [4-[3-(4-chlorophenyl)-5-phenyl-3,4-dihydropyrazol-2-yl]benzenesulfonamide]",> 30
17,CCc1ccc(C2=NN(c3ccc(S(N)(=O)=O)cc3)C(c3ccc(F)cc3)C2)cc1 (stereo not given),> 30

row,Structure (SMILES),EC50 [µM]
1,"COc1ccc(C2CC(c3cccc(F)c3)=NN2c2ccc(S(N)(=O)=O)cc2)cc1 (stereo not given) [4-[5-(3-fluorophenyl)-3-(4-methoxyphenyl)-3,4-dihydropyrazol-2-yl]benzenesulfonamide]",> 30
2,"COc1ccc(C2CC(c3ccc(C(F)(F)F)cc3)=NN2c2ccc(S(N)(=O)=O)cc2)cc1 (stereo not given) [4-[3-(4-methoxyphenyl)-5-[4-(trifluoromethyl)phenyl]-3,4-dihydropyrazol-2-yl]benzenesulfonamide]",> 30
3,"Fc1ccccc1C1CC(c2ccc(Br)cc2)=NN1c1ccc(Br)cc1 (stereo not given) [2,5-bis(4-bromophenyl)-3-(2-fluorophenyl)-3,4-dihydropyrazole]",> 30
4,"COc1ccc(C2CC(c3ccc(F)cc3)=NN2c2cc(Cl)ccc2Cl)cc1 (stereo not given) [2-(2,5-dichlorophenyl)-5-(4-fluorophenyl)-3-(4-methoxyphenyl)-3,4-dihydropyrazole]",11.1
5,COc1ccccc1C1CC(c2ccccc2)=NN1c1ccccc1 (stereo not given),> 30
6,COc1ccc(C2=NN(c3ccccc3)C(c3ccccc3C(F)(F)F)C2)cc1 (stereo not given),> 30
7,"COc1ccc(C2CC(c3cccc(OC)c3)=NN2c2ccc(S(N)(=O)=O)cc2)cc1 (stereo not given) [4-[5-(3-methoxyphenyl)-3-(4-methoxyphenyl)-3,4-dihydropyrazol-2-yl]benzenesulfonamide]",> 30
8,"COc1ccc(C2=NN(c3ccc(Cl)c(Cl)c3)C(c3ccc(OC)cc3)C2)cc1 (stereo not given) [2-(3,4-dichlorophenyl)-3,5-bis(4-methoxyphenyl)-3,4-dihydropyrazole]",> 30
9,"COc1ccc(C2CC(c3ccccc3)=NN2c2cccc(S(N)(=O)=O)c2)cc1 (stereo not given) [3-[3-(4-methoxyphenyl)-5-phenyl-3,4-dihydropyrazol-2-yl]benzenesulfonamide]",> 30
10,"COc1ccc(C2=NN(c3ccc(S(N)(=O)=O)cc3)C(c3ccc(OC)cc3)C2)cc1 (stereo not given) [4-[3,5-bis(4-methoxyphenyl)-3,4-dihydropyrazol-2-yl]benzenesulfonamide]",> 30
11,"COc1ccc(C2CC(c3ccccc3)=NN2c2ccc(Cl)c(C(=O)O)c2)cc1OC (stereo not given) [2-chloro-5-[3-(3,4-dimethoxyphenyl)-5-phenyl-3,4-dihydropyrazol-2-yl]benzoic acid]",> 30
12,"CN(C)c1ccc(C2CC(c3ccccc3)=NN2c2ccccc2)cc1 (stereo not given) [4-(2,5-diphenyl-3,4-dihydropyrazol-3-yl)-N,N-dimethylaniline]",> 30
13,"COc1ccccc1C1CC(c2ccccc2)=NN1c1ccc(S(N)(=O)=O)cc1 (stereo not given) [4-[3-(2-methoxyphenyl)-5-phenyl-3,4-dihydropyrazol-2-yl]benzenesulfonamide]",> 30
14,O=[N+]([O-])c1ccc([N+]2=N[C-](c3ccccc3)CC2c2ccccc2)cc1 (stereo not given),> 30
15,COc1ccc(C2CC(c3ccccc3OC)=NN2c2ccc(S(N)(=O)=O)cc2)cc1 (stereo not given),> 30
16,COc1ccc(C2CC(c3ccc(Cl)cc3)=NN2c2ccc(S(N)(=O)=O)cc2)cc1 (stereo not given),> 30
17,COc1ccc(C2CC(c3ccncc3)=NN2c2ccc(S(N)(=O)=O)cc2)cc1 (stereo not given),> 30

# Same assay, conditions: inactive by the depositor's call
row,EC50 [µM],Structure (SMILES)
1,0.141,COc1ccc(C2CC(c3cccc(Cl)c3)=NN2c2ccc(S(N)(=O)=O)cc2)cc1 (stereo not given) [UNM-0000306134]
2,0.679,COc1ccc(C2=NN(c3ccccc3)C(c3ccc(Cl)cc3)C2)cc1 (stereo not given) [UNM-0000305833]

# The next lines start with the molecule.
row,Structure (SMILES),EC50 [µM]
1,O=S(=O)(c1ccc(N2N=C(c3ccccc3)CC2c2ccccc2)cc1)C(F)F (stereo not given),0.508
2,"COc1ccc(C2=NN(c3cccc(F)c3)C(c3ccc(OC)cc3)C2)cc1 (stereo not given) [2-(3-fluorophenyl)-3,5-bis(4-methoxyphenyl)-3,4-dihydropyrazole]",0.104
3,Clc1ccc(N2N=C(c3ccccc3)CC2c2ccccc2)cc1 (stereo not given),6.64
